Measurements as given in patent US20160101106A1, “METHODS FOR TREATING HCV INFECTION” (Inhibikase Therpeutics, Inc., priority 2013, published 2016).
Read-outs that look alike come from different tables or passages of the source.

Assays:
Assay type in all cases: cell-based, HCV
HCVcc GT2a = test: Synergistic antiviral potency against HCVcc (AZ-628 with direct-acting antivirals); conditions: for EC50: read-out: EC50 alone
Experimental: The tested RAF inhibitors were evaluated for an ability to synergize with other current, late stage or marketed direct-acting antivirus (DAAs).

HCVpp, Genotype 1b = test: microbe, parasite or virus in culture
HCVcc, Genotype 2a = test: HCVcc inhibitor assay in Huh 7.5 cells, Renilla luciferase readout; conditions: Hepatitis C virus, Huh-7.5.1
Experimental: The secondary screen, for anti-HCV activity utilized HCVcc, a lab-adapted full infection cycle virus, to evaluate the effect of Raf inhibition on viral entry. The HCVcc inhibitor assay uses Huh 7.5 cells and HCVcc containing the luciferase gene generated from pJ6/JFH1-p7Rluc. Briefly cells are plated one day prior to assay. On the day of assay, media is aspirated. The cells are pre-treated with 100 μl of 1X compound. After 1 h pretreatment, compound containing media is aspirated, HCVcc diluted 1x compound is added to each well. Toxicity plates receive only the test compound in tissue culture medium. […] Compound cytotoxicity is assessed by MTS (CellTiter® 96 Reagent, Promega, Madison Wis.) dye reduction. The % reduction in viral entry is determined and reported. […]
The plasmids carrying HCV J6/JFH1 genome, or chimeric mCon1/JFH1 or mH77/JFH1 genome and Rluc reporter gene were kindly provided by Dr. Charles Rice at Rockefeller University. […] HCVcc infectivity was determined by TCID50 assay. […] The number of HCV positive cells was counted. The TCID50 was calculated according to the Reed and Muench method.
The format of the test plate has been standardized by SOUTHERN. […] Samples were evaluated for antiviral efficacy with triplicate measurements using 6 concentrations at half-log (or other) dilutions in order to determine EC50 values and cellular cytotoxicity, if detectable. […]

[1] = Genotype 1b, luciferase tagged HCV GT-1b pseudotyped virus, Huh 7.5.1, ≧80% confluent cells, MOI 0.02, read-out: EC50

## COC(=O)N[C@H](C(=O)N1CCC[C@H]1c1ncc(-c2ccc(-c3ccc(-c4cnc([C@@H]5CCCN5C(=O)[C@@H](NC(=O)OC)C(C)C)[nH]4)cc3)cc2)[nH]1)C(C)C [BMS-790052]
HCVcc GT2a; Hepatitis C virus, Genotype 2a, single drug
  EC50: 0.1 nM
HCVcc GT2a; IkT-064 0 nM, BMS-790052 0.781 pM
  % antiviral inhibition: 0%
HCVcc GT2a; IkT-064 0 nM, BMS-790052 1.563 pM
  % antiviral inhibition: 0%
HCVcc GT2a; IkT-064 0 nM, BMS-790052 3.125 pM
  % antiviral inhibition: 8.7%
HCVcc GT2a; IkT-064 0 nM, BMS-790052 6.25 pM
  % antiviral inhibition: 8.72%
HCVcc GT2a; IkT-064 0 nM, BMS-790052 12.5 pM
  % antiviral inhibition: 17.27%
HCVcc GT2a; IkT-064 0 nM, BMS-790052 25 pM
  % antiviral inhibition: 19.54%
HCVcc GT2a; IkT-064 0 nM, BMS-790052 50 pM
  % antiviral inhibition: 33.86%
HCVcc GT2a; IkT-064 0 nM, BMS-790052 100 pM
  % antiviral inhibition: 59.54%

## Cc1ccc(NC(=O)c2cccc(C(C)(C)C#N)c2)cc1Nc1ccc2ncn(C)c(=O)c2c1 [AZ-628]
HCVpp, Genotype 1b; Hepatitis C virus, Huh-7.5.1
  EC50: 420 nM
HCVcc, Genotype 2a
  EC50: 120 nM
HCVcc GT2a; Hepatitis C virus, GT2A, IkT-064 25 nM, GS-7977 0 nm
  inhibition at 0.025 µM: 0%
HCVcc GT2a; Hepatitis C virus, GT2A, IkT-064 50 nM, GS-7977 0 nm
  inhibition at 0.05 µM: 0%
HCVcc GT2a; Hepatitis C virus, GT2A, IkT-064 100 nM, GS-7977 0 nm
  inhibition at 0.1 µM: 0%
HCVcc GT2a; Hepatitis C virus, GT2A, IkT-064 200 nM, GS-7977 0 nm
  inhibition at 0.2 µM: 5.15%
HCVcc GT2a; Hepatitis C virus, GT2A, IkT-064 400 nM, GS-7977 0 nm
  inhibition at 0.4 µM: 73.4%
HCVcc GT2a; Hepatitis C virus
  EC50: 300 nM
HCVcc GT2a; IkT-064 25 nM, BMS-790052 0 pM
  % antiviral inhibition: 2.83%
HCVcc GT2a; IkT-064 200 nM, BMS-790052 0 pM
  % antiviral inhibition: 17.39%
HCVcc GT2a; IkT-064 400 nM, BMS-790052 0 pM
  % antiviral inhibition: 74.25%

## Cn1c(Nc2ccc(C(F)(F)F)cc2)nc2cc(Oc3ccnc(-c4ncc(C(F)(F)F)[nH]4)c3)ccc21 [Raf265]
HCVpp, Genotype 1b; Hepatitis C virus, Huh-7.5.1
  EC50: 890 nM
HCVcc, Genotype 2a
  EC50: 1050 nM

## CC(C)(C)c1nc(-c2cccc(NS(=O)(=O)c3c(F)cccc3F)c2F)c(-c2ccnc(N)n2)s1 [GSK2118436/dabrafinib]
HCVpp, Genotype 1b; [1]
  EC50: > 5000 nM

## CCCS(=O)(=O)Nc1ccc(F)c(C(=O)c2c[nH]c3ncc(-c4ccc(Cl)cc4)cc23)c1F [Zelboraf/PLX4032]
HCVpp, Genotype 1b; [1]
  EC50: > 5000 nM

## CC(C)OC(=O)[C@H](C)N[P@](=O)(OC[C@H]1O[C@@H](n2ccc(=O)[nH]c2=O)[C@](C)(F)[C@@H]1O)Oc1ccccc1 [GS-7977]
HCVcc GT2a; Genotype 2a, single drug
  EC50: 250 nM
HCVcc GT2a; Genotype 2a, with AZ-628
  Fold Synergy: 5
HCVcc GT2a; IkT-064 0 nM, GS-7977 1.563 nm
  % antiviral inhibition: 0%
HCVcc GT2a; IkT-064 0 nM, GS-7977 3.125 nm
  % antiviral inhibition: 0%
HCVcc GT2a; IkT-064 0 nM, GS-7977 6.25 nm
  % antiviral inhibition: 0%
HCVcc GT2a; IkT-064 0 nM, GS-7977 12.5 nm
  % antiviral inhibition: 0%
HCVcc GT2a; IkT-064 0 nM, GS-7977 25 nm
  % antiviral inhibition: 2.65%
HCVcc GT2a; IkT-064 0 nM, GS-7977 50 nm
  % antiviral inhibition: 11.54%
HCVcc GT2a; IkT-064 0 nM, GS-7977 100 nm
  % antiviral inhibition: 21.51%
HCVcc GT2a; IkT-064 0 nM, GS-7977 200 nm
  % antiviral inhibition: 44.74%

## CNC(=O)c1cc(Oc2ccc(NC(=O)Nc3ccc(Cl)c(C(F)(F)F)c3)cc2)ccn1 [sorafenib]
HCVpp, Genotype 1b; Hepatitis C virus, Huh-7.5.1
  EC50: 1810 nM
